{"source": "patent US12404242B2", "about": "“Compositions and methods for making and using small molecules in the treatment of cancer” (Reglagene, Inc., priority 2021, dated 2025)", "key": {"[1]": {"tested_on": "colchicine binding site (tubulin) in MCF7 cell lines", "test": "N,N'-ethylene-bis(iodoacetamide) (EBI) competition assay in MCF7 cells", "type": "cell-based", "conditions": "MCF7 cell lines (FIG. 44)", "description": "FIG. 44 represent N,N′-ethylene-bis(iodoacetamide) (EBI) competition assay with compounds 19, 73 and 93 in MCF7 cell lines showing binding of compounds in colchicine binding site in accordance with certain embodiments of the present disclosure. Colchicine (COL) and nocodazole (NOC) are positive controls while vincristine (VINC) is negative control.\n(§1) Microtubule-targeting agents that bind at the colchicine-site of tubulin are of interest in antitumoral therapy due to their action as anti-mitotics. […] Nocodazole was used as a positive control. […] Colchicine (COL) and nocodazole (NOC) are positive controls while vincristine (VINC) is negative control."}, "[2]": {"tested_on": "colchicine-site of tubulin", "test": "Fluorescence-based colchicine competitive binding assay", "conditions": "50 uM (FIG. 43)", "protocol": "FIG. 43 represent fluorescence-based colchicine competitive binding assay with compounds 19, 73 and 93 at 50 uM concentration in accordance with certain embodiments of the present disclosure. Nocodazole (NOC) is positive control.\nas §1"}, "[3]": {"tested_on": "LN18 glioblastoma cancer cells", "test": "Combination with Temozolomide, Bliss synergy in LN18 cells", "type": "cell-based", "conditions": "Temozolomide 0 to 1000 uM, compound 0.625 to 10 uM", "protocol": "Synergy was calculated with the Bliss independence model. Compounds were combined at concentrations of 0 to 1000 uM for Temozolomide and 0.625 to 10 uM for compounds 19 and 59."}, "tubulin [4]": {"tested_on": "tubulin", "test": "Tubulin polymerization assay", "type": "biochemical", "conditions": "compound 19 at 0.3, 1, 3 and 6 uM; compound 73 at 0.1, 0.3, 1, 3 and 5 uM"}, "tubulin [5]": {"tested_on": "tubulin", "test": "Tubulin polymerization assay", "type": "biochemical", "conditions": "5 uM (FIG. 41A, 41C) or 1 uM (FIG. 41B)", "protocol": "FIG. 41A-41C represent exemplary experiments illustrating inhibition of tubulin polymerization. FIG. 41A illustrates effects of compounds 19, 73, 86, 93 and 94 at 5 uM concentration. FIG. 41B illustrates effects of compounds 93, 94, 95 and 96 at 1 uM concentration.\nFIG. 41C illustrates effects of compounds 73, 86, 87 and 88 at 5 uM concentration in accordance with certain embodiments of the present disclosure. Colchicine and vincristine are positive controls.\nFIG. 42A-42B represent exemplary experiments illustrating inhibition of tubulin polymerization. FIG. 42A illustrates effects of compound 19 at 0.3, 1, 3 and 6 uM concentrations.\nFIG. 42B illustrates effects of compound 73 at […] concentration in accordance with certain embodiments of the present disclosure. Colchicine and nocodazole are positive controls.\nIn another exemplary method, the effect of the compounds herein on tubulin polymerization was determined. FIG. 41A illustrates effects of compounds 19, 73, 86, 93 and 94 at 5 uM concentration, FIG. 41B illustrates effects of compounds 93, 94, 95 and 96 at 1 uM concentration, or FIG. 41C illustrates effects of compounds 87 and 88 at 5 uM concentration in accordance with certain embodiments of the present disclosure. Colchicine and vincristine are positive controls.\nThe dose dependent effect of compounds 19 and 73 on tubulin polymerization was also determined. FIG. 42A illustrates effects of compound 19 at 0.3, 1, 3 and 6 uM concentrations, and FIG. 42B illustrates effects of compound 73 at 0.1, 0.3, 1, 3 and 5 uM concentration in accordance with certain embodiments of the present disclosure. Colchicine and nocodazole are positive controls."}, "[6]": {"test": "Kinetic solubility in aqueous PBS buffer (HPLC-MS)", "type": "physicochemical", "conditions": "kinetic from dmso stock, DMSO stock mixed with aqueous PBS buffer, filtered, read-out: Kinetic Solubility", "how_it_was_run": "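A concentrated DMSO stock was mixed with aqueous PBS buffer and filtered. The filtrate was quantified against an HPLC-MS calibration curve.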"}, "U87 glioblastoma cells": {"tested_on": "U87 glioblastoma cells", "test": "Combination with ionizing radiation in U87 cells", "type": "cell-based", "conditions": "2 Gy ionizing radiation and 0.04-0.3 uM compound; versus ionizing radiation alone"}, "LN18 cells": {"tested_on": "LN18 cells", "test": "Cell viability (AlamarBlue), LN18 glioma cells", "type": "cell-based", "conditions": "Homo sapiens, LN-18, 72 hours of treatment", "protocol": "In another exemplary method, half maximal effective concentration (EC50) was determined for some compounds and their isomers as disclosed herein in a variety of human cancer cell lines. In brief, cells from two prostate cancer cell lines (LNCaP, 22RV1), one glioblastoma cell line (U87), one breast cancer cell line (MCF7), a glioma cell line (LN18), a normal prostate cell line (RWPE1), and a glioblastoma cell line (T98G) were plated in a multi-well plate. After 24 hours, one of the compounds herein was added to the well at increasing concentrations. After 72 hours of treatment, cell viability was assessed using AlamrBlue® (Invitrogen) and fluorescence was read using the CLARIOstar Plus Multilabel Plate Reader (BMG Labtech). Samples were normalized to no treatment controls. EC50 values were determined using GraphPad Prism."}, "[7]": {"tested_on": "22Rv1 prostate cancer cells", "test": "Combination with Rabusertib, Bliss synergy in 22Rv1 cells", "type": "cell-based", "conditions": "Rabusertib 0 to 30 uM, compound 0.625 to 5 uM", "protocol": "Synergy was calculated with the Bliss independence model. Compounds were combined at concentrations of 0 to 30 uM for Rabusertib and 0.625 to 5 uM for compounds 73 and 76."}, "22RV1 cells": {"tested_on": "22RV1 cells", "test": "Cell viability (AlamarBlue), 22RV1 prostate cancer cells", "type": "cell-based, human", "conditions": "Homo sapiens, 22Rv1, 72 h, 72 hours of treatment", "how_it_was_run": "(§2)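 Following a 72-hour incubation with escalating compound doses, applied one day after seeding, AlamarBlue fluorescence gave viability relative to untreated cells, from which half-maximal effective concentrations were calculated.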"}, "U87 cells": {"tested_on": "U87 cells", "test": "Cell viability (AlamarBlue), U87 glioblastoma cells", "type": "cell-based, human", "conditions": "Homo sapiens, U-87 MG, 72 h, 72 hours of treatment", "how_it_was_run": "as §2"}}, "data": [{"smiles": "COC1CC(C(=O)NC(=O)Nc2ccc(Oc3ccc(Cl)cn3)c(C)c2)C1", "note": "(stereo not shown) [Compound 19, N-((4-((5-chloropyridin-2-yl)oxy)-3-methylphenyl)carbamoyl)-3-methoxycyclobutane-1-carboxamide]", "values": [{"measurement": "EBI competition assay result", "setting": "[1]", "value": "inhibitors of EBI binding"}, {"measurement": "colchicine competitive binding assay result", "setting": "[2]", "value": "significantly inhibit microtubule assembly"}, {"measurement": "Bliss Synergy value, combination with Temozolomide", "setting": "[3]; LN18 cells, Bliss independence model", "value": 29.5}, {"measurement": "effect of combination with Temozolomide on cancer cell viability", "setting": "[3]", "value": "synergistic decrease in cancer cell viability"}, {"measurement": "dose dependent effect on tubulin polymerization", "setting": "tubulin [4]", "value": "significantly inhibit tubulin polymerization in a dose dependent manner"}, {"measurement": "effect on tubulin polymerization", "setting": "tubulin [5]", "value": "significantly inhibit tubulin polymerization"}, {"measurement": "solubility kinetic", "setting": "[6]", "value": 5.68, "unit": "µM"}, {"measurement": "cancer cell viability with ionizing radiation plus compound", "setting": "U87 glioblastoma cells", "value": "reduced cancer cell viability relative to cells treated with ionizing radiation alone"}, {"measurement": "EC50", "setting": "LN18 cells", "value": 0.83, "unit": "µM"}]}, {"smiles": "COC1CC(C(=O)NC(=O)Nc2cc(C)c(Oc3ncc(Cl)cn3)c(F)c2)C1", "note": "(stereo not shown) [Compound 73, N-((4-((5-chloropyrimidin-2-yl)oxy)-3-fluoro-5-methylphenyl)carbamoyl)-3-methoxycyclobutane carboxamide]", "values": [{"measurement": "EBI competition assay result", "setting": "[1]", "value": "inhibitors of EBI binding"}, {"measurement": "Bliss Synergy value, combination with Rabusertib", "setting": "[7]; 22Rv1 cells, Bliss independence model", "value": 20.7}, {"measurement": "effect of combination with Rabusertib on cancer cell viability", "setting": "[7]", "value": "synergistic decrease in cancer cell viability"}, {"measurement": "colchicine competitive binding assay result", "setting": "[2]", "value": "significantly inhibit microtubule assembly"}, {"measurement": "EC50", "setting": "22RV1 cells", "value": 0.068, "unit": "µM"}, {"measurement": "dose dependent effect on tubulin polymerization", "setting": "tubulin [4]", "value": "significantly inhibit tubulin polymerization in a dose dependent manner"}, {"measurement": "effect on tubulin polymerization", "setting": "tubulin [5]", "value": "significantly inhibit tubulin polymerization"}, {"measurement": "EC50", "setting": "U87 cells", "value": 0.12, "unit": "µM"}]}, {"smiles": "COC1CC(C(=O)NC(=O)Nc2ccc(C)c(Oc3nccs3)c2)C1", "note": "(stereo not shown) [Compound 93, 3-methoxy-N-((4-methyl-3-(thiazol-2-yloxy)phenyl)carbamoyl)cyclobutane-1-carboxamide]", "values": [{"measurement": "EBI competition assay result", "setting": "[1]", "value": "inhibitors of EBI binding"}, {"measurement": "colchicine competitive binding assay result", "setting": "[2]", "value": "significantly inhibit microtubule assembly"}, {"measurement": "effect on tubulin polymerization", "setting": "tubulin [5]", "value": "significantly inhibit tubulin polymerization"}, {"measurement": "EC50", "setting": "U87 cells", "value": 0.03, "unit": "µM"}, {"measurement": "solubility kinetic", "setting": "[6]", "value": 8.9, "unit": "µM"}]}]}
